Reference: US8785488B2 (Exelixis Patent Company LLC, priority 2009, dated 2014)

Columns and labels:
h-TGR5 = target: T1, h-TGR5 (Homo sapiens, UniProt Q8TDU6); experiment: TGR5 cAMP Assay using Cisbio cAMP Dynamic2 htrf kit (hTGR5CRE-luc HEK 293 cells); type: cell-based; conditions: h-TGR5 cAMP EC50, Table 1; read-out: cAMP (EC50)
T1 construct: expressed in transfected cells
T1 sequence (Q8TDU6 1-330): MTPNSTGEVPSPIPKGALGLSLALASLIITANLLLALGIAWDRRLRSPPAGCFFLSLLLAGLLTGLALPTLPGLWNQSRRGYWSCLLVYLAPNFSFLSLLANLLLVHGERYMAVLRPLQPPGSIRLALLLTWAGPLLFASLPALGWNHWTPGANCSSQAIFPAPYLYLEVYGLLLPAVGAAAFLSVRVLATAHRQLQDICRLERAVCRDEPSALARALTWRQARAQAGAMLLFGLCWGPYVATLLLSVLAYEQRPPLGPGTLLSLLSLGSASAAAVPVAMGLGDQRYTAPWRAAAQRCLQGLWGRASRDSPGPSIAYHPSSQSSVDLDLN
How it was run: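 […], 4000 hTGR5CRE-luc HEK 293 cells per well, with 0.5 mM IBMX and d2-cAMP, were incubated 30 min at room temperature with compounds in 8-point half-log series, in quadruplicate.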

human TGR5 (h-TGR5) = target: T2, human TGR5 (h-TGR5) (Homo sapiens, UniProt Q8TDU6); experiment: TGR5/CRE-Luciferiase Assay (HEK 293 hTGR5/CRE-Luc cells); type: cell-based; conditions: h-TGR5 CRE-Luc EC50, Table 1; read-out: CRE-Luc (EC50)
T2 construct: expressed in transfected cells
T2 sequence (Q8TDU6 1-330): T1 sequence (Q8TDU6 1-330)
How it was run: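 HEK293 cells stably carrying hTGR5 and a CRE-luciferase reporter were exposed to serially diluted compounds (diluted in DMEM with 5% DMSO) for 6 h. Cells were then lysed in luciferase buffer, luminescence was read, and EC50 values were derived from dose-response curves.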

EC50 (h-TGR5) [nM]	EC50 (human TGR5 (h-TGR5)) [nM]	SMILES
< 100	< 100	COc1cc(C(C)(C)c2cnc(SCc3c(F)cc(C(=O)NC(CCCCNC(=N)N)C(=O)O)cc3Cl)n2-c2ccc(F)cc2)ccc1Cl [N-6-[amino(imino)methyl]-N-2-{[3-chloro-4-({[5-{1-[4-chloro-3-(methyloxy)phenyl]-1-methylethyl}-1-(4-fluorophenyl)-1H-imidazol-2-yl]thio}methyl)-5-fluorophenyl]carbonyl}-L-lysine]
100 to 1000	100 to 1000	CC(C)(c1ccc(F)c(Cl)c1)c1cnc(SCc2ccc(S(=O)(=O)NC(=O)NN3CCCC3)cc2Cl)n1-c1ccc(F)cc1 [3-chloro-4-[({5-[1-(3-chloro-4-fluorophenyl)-1-methylethyl]-1-(4-fluorophenyl)-1H-imidazol-2-yl}thio)methyl]-N-[(pyrrolidin-1-ylamino)carbonyl]benzenesulfonamide]
< 100	< 100	COc1cc(C(C)(C)c2cnc(SCc3ccc(S(=O)(=O)NC(=O)NC4CCCC4)cc3Cl)n2-c2ccc(F)cc2)ccc1Cl [3-chloro-4-({[5-{1-[4-chloro-3-(methyloxy)phenyl]-1-methylethyl}-1-(4-fluorophenyl)-1H-imidazol-2-yl]thio}methyl)-N-[(cyclopentylamino)carbonyl] benzenesulfonamide]
100 to 1000	< 100	COc1ccc(C(C)(C)c2cnc(SCc3cc(F)ccc3Cl)n2-c2ccc(F)cc2)cc1Cl [2-{[(2-chloro-5-fluorophenyl)methyl]thio}-5-{1-[3-chloro-4-(methyloxy)phenyl]-1-methylethyl}-1-(4-fluorophenyl)-1H-imidazole]
100 to 1000	100 to 1000	CC(C)(c1ccc(CO)c(Cl)c1)c1cnc(SCc2ccc(F)cc2Cl)n1-c1ccc(F)cc1 [(2-chloro-4-{1-[2-{[(2-chloro-4-fluorophenyl)methyl]thio}-1-(4-fluorophenyl)-1H-imidazol-5-yl]-1-methylethyl}phenyl)methanol]
< 100	< 100	COc1cc(-n2c(C(C)(C)c3ccc(S(N)(=O)=O)c(Cl)c3)cnc2SCc2c(F)cc(C(=O)O)cc2F)ccc1F [4-{[(5-{1-[4-(aminosulfonyl)-3-chlorophenyl]-1-methylethyl}-1-[4-fluoro-3-(methyloxy)phenyl]-1H-imidazol-2-yl)thio]methyl}-3,5-difluorobenzoic acid]
< 100	< 100	COc1cc(C(C)(C)c2cnc(SCc3c(F)cc(C(=O)NCCS(=O)(=O)O)cc3Cl)n2-c2ccc(F)cc2)ccc1Cl [2-({[3-chloro-4-({[5-{1-[4-chloro-3-(methyloxy)phenyl]-1-methylethyl}-1-(4-fluorophenyl)-1H-imidazol-2-yl]thio}methyl)-5-fluorophenyl]carbonyl}amino)ethanesulfonic acid]
< 100	< 100	COc1cc(C(C)(C)c2cnc(SCc3c(F)cc(OCCNC(=N)N)cc3Cl)n2-c2ccc(F)cc2)ccc1F [1-(2-{[3-chloro-5-fluoro-4-({[5-{1-[4-fluoro-3-(methyloxy)phenyl]-1-methylethyl}-1-(4-fluorophenyl)-1H-imidazol-2-yl]thio}methyl)phenyl]oxy}ethyl)guanidine]
< 100	< 100	COc1cc(C(C)(C)c2cnc(SCc3c(F)cccc3Cl)n2-c2ccc(F)cc2)ccc1Cl [2-{[(2-chloro-6-fluorophenyl)methyl]thio}-5-{1-[4-chloro-3-(methyloxy)phenyl]-1-methylethyl}-1-(4-fluorophenyl)-1H-imidazole]
< 100	< 100	COc1ccc(C(C)(C)c2cnc(SCc3cc(F)cc(Cl)c3)n2-c2ccc(F)cc2)cc1OC [5-{1-[3,4-bis(methyloxy)phenyl]-1-methylethyl}-2-{[(3-chloro-5-fluorophenyl)methyl]thio}-1-(4-fluorophenyl)-1H-imidazole]
< 100	< 100	COc1cc(C(C)(C)c2cnc(SCc3c(F)cc(C(=O)O)cc3Cl)n2-c2ccc(F)cn2)ccc1Cl [3-chloro-4-({[5-{1-[4-chloro-3-(methyloxy)phenyl]-1-methylethyl}-1-(5-fluoropyridin-2-yl)-1H-imidazol-2-yl]thio}methyl)-5-fluorobenzoic acid]
< 100	< 100	COc1cc(-n2c(C(C)(C)c3ccc(F)c(Cl)c3)cnc2SCc2c(F)cc(OCCNC(=N)N)cc2F)ccc1F [1-[2-({4-[({5-[1-(3-chloro-4-fluorophenyl)-1-methylethyl]-1-[4-fluoro-3-(methyloxy)phenyl]-1H-imidazol-2-yl}thio)methyl]-3,5-difluorophenyl}oxy)ethyl]guanidine]
< 100	< 100	COc1cc(-n2c(C(C)(C)c3ccc(Cl)c(Cl)c3)cnc2SCc2c(F)cc(C(=O)NCCS(=O)(=O)O)cc2F)ccc1F [2-[({4-[({5-[1-(3,4-dichlorophenyl)-1-methylethyl]-1-[4-fluoro-3-(methyloxy)phenyl]-1H-imidazol-2-yl}thio)methyl]-3,5-difluorophenyl}carbonyl)amino]ethanesulfonic acid]
100 to 1000	100 to 1000	CC(C)(c1ccc(Cl)c(Cl)c1)c1cnc(SCc2ccc(S(=O)(=O)NC(=O)NN3CCCC3)cc2Cl)n1-c1ccc(F)cn1 [3-chloro-4-[({5-[1-(3,4-dichlorophenyl)-1-methylethyl]-1-(5-fluoropyridin-2-yl)-1H-imidazol-2-yl}thio)methyl]-N-[(pyrrolidin-1-ylamino)carbonyl]benzenesulfonamide]
< 100	< 100	COc1cc(C(C)(C)c2cnc(SCc3c(F)cc(S(=O)(=O)O)cc3Cl)n2-c2ccc(F)cc2)ccc1Cl [3-chloro-4-({[5-{1-[4-chloro-3-(methyloxy)phenyl]-1-methylethyl}-1-(4-fluorophenyl)-1H-imidazol-2-yl]thio}methyl)-5-fluorobenzenesulfonic acid]
100 to 1000	100 to 1000	CC(C)(c1ccc(Cl)c(Cl)c1)c1cnc(SCc2ccc(S(=O)(=O)O)cc2Cl)n1-c1ccc(F)cc1 [3-chloro-4-[({5-[1-(3,4-dichlorophenyl)-1-methylethyl]-1-(4-fluorophenyl)-1H-imidazol-2-yl}thio)methyl]benzenesulfonic acid]
< 100	< 100	COc1ccc(C(C)(C)c2cnc(SCc3c(F)cccc3Cl)n2-c2ccc(F)cc2)cc1Cl [2-{[(2-chloro-6-fluorophenyl)methyl]thio}-5-{1-[3-chloro-4-(methyloxy)phenyl]-1-methylethyl}-1-(4-fluorophenyl)-1H-imidazole]
< 100	< 100	COc1cc(-n2c(C(C)(C)c3ccc(S(N)(=O)=O)c(Cl)c3)cnc2SCc2ccc(C(=O)NCCS(=O)(=O)O)cc2F)ccc1F [2-{[(4-{[(5-{1-[4-(aminosulfonyl)-3-chlorophenyl]-1-methylethyl}-1-[4-fluoro-3-(methyloxy)phenyl]-1H-imidazol-2-yl)thio]methyl}-3-fluorophenyl)carbonyl]amino}ethanesulfonic acid]
< 100	< 100	COc1cc(C(C)(C)c2cnc(SCc3ccc(C(=O)NCS(=O)(=O)O)cc3F)n2-c2ccc(F)cc2)ccc1Cl [({[4-({[5-{1-[4-chloro-3-(methyloxy)phenyl]-1-methylethyl}-1-(4-fluorophenyl)-1H-imidazol-2-yl]thio}methyl)-3-fluorophenyl]carbonyl}amino)methanesulfonic acid]
< 100	< 100	CC(C)(c1ccc(Cl)c(Cl)c1)c1cnc(CCc2c(F)cc(C(=O)NCCS(=O)(=O)O)cc2Cl)n1-c1ccc(F)cc1 [2-({[3-chloro-4-(2-{5-[1-(3,4-dichlorophenyl)-1-methylethyl]-1-(4-fluorophenyl)-1H-imidazol-2-yl}ethyl)-5-fluorophenyl]carbonyl}amino)ethanesulfonic acid]
< 100	< 100	COc1ccc(C(C)(C)c2cnc(SCc3c(F)cc(C(=O)O)cc3Cl)n2-c2ccc(F)cc2)cc1Cl [3-chloro-4-({[5-{1-[3-chloro-4-(methyloxy)phenyl]-1-methylethyl}-1-(4-fluorophenyl)-1H-imidazol-2-yl]thio}methyl)-5-fluorobenzoic acid]
100 to 1000	100 to 1000	CC(C)(c1ccc(Cl)cc1F)c1cnc(SCc2c(F)cccc2Cl)n1-c1ccc(F)cc1 [5-[1-(4-chloro-2-fluorophenyl)-1-methylethyl]-2-{[(2-chloro-6-fluorophenyl)methyl]thio}-1-(4-fluorophenyl)-1H-imidazole]
100 to 1000	< 100	COc1ccc(C(C)(C)c2cnc(SCc3ccc(Cl)c(-c4nnn[nH]4)c3)n2-c2ccc(F)cc2)cc1Cl [5-[2-chloro-5-({[5-{1-[3-chloro-4-(methyloxy)phenyl]-1-methylethyl}-1-(4-fluorophenyl)-1H-imidazol-2-yl]thio}methyl)phenyl]-1H-tetrazole]
100 to 1000	100 to 1000	CC(C)NC(=O)NS(=O)(=O)c1cc(CSc2ncc(C(C)(C)c3ccc(Cl)c(Cl)c3)n2-c2ccc(F)cc2)ccc1Cl [2-chloro-5-[({5-[1-(3,4-dichlorophenyl)-1-methylethyl]-1-(4-fluorophenyl)-1H-imidazol-2-yl}thio)methyl]-N-{[(1-methylethyl)amino]carbonyl}benzenesulfonamide]
